Measurements as given in US20080306114A1, “Human G Protein-Coupled Receptor and Modulators Thereof for the Treatment of Hyperglycemia and Related Disorders” (Arena Pharmaceuticals, Inc, priority 2004, published 2008).
Entries after “also recorded” stand apart in the source; their conditions may differ.

Columns and labels:
mouse 3T3L1 adipocytes = experiment: In vitro glucose uptake assay in 3T3L1 adipocytes; format: cell-based
Experimental: (§1) The in vitro glucose uptake assay was carried out as described here.
(§2) KRPH buffer: 5 mM NaHPO4, pH 7.4 (Make KRPH buffer fresh each time) • 20 mM Hepes, pH 7.4 • 1 mM MgSO4 • 1 mM CaCl2 • 136 mM NaCl • 4.7 mM KCl • 1% BSA
(§3) For each well, add 1 μl containing 1 μCi [^3H]-2-DOG and 1 μl cold stock 2-DOG and 2 ml KRPH.
(§4) Use CytoB at 10 μM final to block carrier-mediated uptake. Also use this concentration at the end to stop the reaction. The stop buffer is PBS plus 10 μm CytoB (“PBS”).
(§5) 1. Starve cells for at least 2 hrs.
(§6) 2. Wash cells 2 times with KRPH buffer and add 2 mls of KRPH to the well.
(§7) 3. Treat cells with insulin and/or with test compound, or with vehicle (Control), for 20 min.
(§8) 4. After 20 min, aspirate the buffer from the well and immediately add 1 ml of KRPH buffer plus 2-DOG. For CytoB-treated cells, add CytoB 5 min before uptake assay.
5. After 4 min, aspirate the buffer from the well and add 3 mls of cold PBS. After completing the assay, wash the cells in each well 2 times with cold PBS. […]
Differentiated mouse 3T3L1 adipocytes were treated with 50 μM Compound 2 for various times, after which glucose uptake was determined according to Example 17.
Differentiated mouse 3T3L1 adipocytes were treated with (“Compound 2”) or without (“Control”) Compound 2 in serum-free medium for 3 hr. […] After treatment with insulin, glucose uptake was determined according to Example 17.

primary human adipocytes = experiment: In vitro glucose uptake assay in primary human adipocytes; format: cell-based; details: 50 μM for 3 hr
Experimental: as §1, §2, §3, §4, §5, §6, §7, §8
(§9) 5. After 4 min, aspirate the buffer from the well and add 3 mls of cold PBS. After completing the assay, wash the cells in each well 2 times with cold PBS. Aspirate the Stop PBS completely, and then add 700 ul of 1% Triton X. Place in 37° C. incubator for 30 min.
(§10) 6. Count CPM in total lysate. Calculate CPM/well.
(§11) Subtract the CytoB value from the value obtained for each of cells treated with insulin and/or with test compound and cells treated with vehicle (Control).
Human preadipocytes (Cambrex) were differentiated into adipocytes. The differentiated primary human adipocytes were treated with or without 50 μM Compound 2 for 3 hr in serum-free medium. The human adipocytes were then washed with fresh KRPH buffer twice and treated with or without 100 nM insulin for 20 min. After treatment with or without insulin, glucose uptake was determined according to Example 17.

rat L6 myoblast cells = experiment: In vitro glucose uptake assay in L6 myoblast cells; format: cell-based
Experimental: as §1, §2, §3, §4, §5, §6, §7, §8, §9, §10, §11
Rat skeletal muscle L6 myoblast cells were obtained from ATCC and grown in 24-well plates to confluence.
Confluent L6 cells were treated with or without various concentrations of Compound 2 in serum-free medium for 3 hr. The L6 cells were then washed twice with KRPH buffer. L6 cells which had been treated with Compound 2 were incubated with KRPH buffer for 20 min; L6 cells which had not been treated with Compound 2 were treated with 10 nM or 100 nM insulin for 20 min. After treatment with or without insulin, glucose uptake was determined according to Example 17. […] As skeletal muscle cells are responsible for 80% of glucose disposal in vivo, the results obtained indicate that RUP43 agonist is an attractive candidate for providing better glucose disposal in vivo than does insulin.
Confluent L6 myoblast cells were treated with 50 μM Compound 2 for various times. At the end of each treatment period, glucose uptake was determined according to Example 17.
Confluent rat L6 myoblast cells were treated with or without 50 μM Compound 2 for 3 hr in serum-free medium. The L6 cells were then washed twice with fresh KRPH buffer. The L6 cells were then treated with or without 100 nM insulin for 20 min. After treatment with or without insulin, glucose uptake was determined according to Example 17. […] The results further indicate that RUP43 agonist can increase insulin efficacy, thereby lowering the concentration of insulin required to achieve maximal glucose uptake. […]

[1] = system: primary human skeletal muscle cells; experiment: In vitro glucose uptake assay in primary human skeletal muscle cells; format: cell-based
Experimental: as §1, §2, §3, §4, §5, §6, §7, §8, §9, §10, §11
Primary human skeletal muscle cells obtained from Cambrex were grown to 50% confluence and then differentiated on culture with inducing medium for 5 to 7 days. The differentiated primary human skeletal muscle cells were then transferred to growth medium for 7 to 10 days.
Differentiated human skeletal muscle cells were treated with or without various concentrations of Compound 2 in serum-free medium for 3 hr. After treatment with or without Compound 2, the cells were washed twice with fresh KRPH buffer. […] After treatment with or without insulin, glucose uptake was determined according to Example 17. […]
Differentiated human skeletal muscle cells were treated with 50 μM Compound 2 for various time periods. At the end of each treatment period, glucose uptake was determined according to Example 17.

endogenous human RUP43 [2] = biological target: T1, endogenous human RUP43 (Homo sapiens, UniProt Q8TDU6); experiment: Melanophore assay; format: cell-based; design: expressed in transfected cells; host or cells: melanophores (skin cells of lower vertebrates), transfected by electroporation
T1 sequence (Q8TDU6 1-330): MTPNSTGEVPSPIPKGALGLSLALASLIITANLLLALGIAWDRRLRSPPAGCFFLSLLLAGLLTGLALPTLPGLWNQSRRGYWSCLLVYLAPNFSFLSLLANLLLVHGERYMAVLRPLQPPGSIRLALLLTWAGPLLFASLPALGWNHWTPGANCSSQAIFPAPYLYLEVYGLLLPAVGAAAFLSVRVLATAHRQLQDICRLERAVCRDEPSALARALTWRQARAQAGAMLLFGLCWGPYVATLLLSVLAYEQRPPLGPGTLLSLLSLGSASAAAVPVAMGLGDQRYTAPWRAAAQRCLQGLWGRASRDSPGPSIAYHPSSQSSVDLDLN
From the text: Melanophores are skin cells found in lower vertebrates. They contain pigmented organelles termed melanosomes. Melanophores are able to redistribute these melanosomes along a microtubule network upon G-protein coupled receptor (GPCR) activation. The result of this pigment movement is an apparent lightening or darkening of the cells. In melanophores, the decreased levels of intracellular cAMP that result from activation of a […] receptor cause melanosomes to migrate to the center of the cell, resulting in a dramatic lightening in color. If cAMP levels are then raised, following activation of a Gs-coupled receptor, the melanosomes are re-dispersed and the cells appear dark again. The increased levels of diacylglycerol that result from activation of Gq-coupled receptors can also induce this re-dispersion. In addition, the technology is also suited to the study of certain receptor tyrosine kinases. The response of the melanophores takes place within minutes of receptor activation and results in a simple, robust color change. The response can be easily detected using a conventional absorbance microplate reader or a modest video imaging system. Unlike other skin cells, the melanophores derive from the neural crest and appear to express a full complement of signaling proteins. In particular, the cells express an extremely wide range of G-proteins and so are able to functionally express almost all GPCRs.
Melanophores can be utilized to identify compounds, including natural ligands, against GPCRs. This method can be conducted by introducing test cells of a pigment cell line capable of dispersing or aggregating their pigment in response to a specific stimulus and expressing an exogenous clone coding for the GCPR. A stimulant, e.g., melatonin, sets an initial state of pigment disposition wherein the pigment is aggregated within the test cells if activation of the GPCR induces pigment dispersion. […] The test cells are then contacted with chemical compounds, and it is determined whether the pigment disposition in the cells changed from the initial state of pigment disposition. […]

[3] = system: Mock transfected HEK293 cells (empty pCMV vector); experiment: Whole-cell cyclase Flashplate cAMP assay, Mock transfected HEK293 cells; format: cell-based, human; details: serially diluted compound, 1 hour
Experimental: (§12) HEK 293 cells obtained from ATCC were used for all assays. Culture media consisted of […] of DMEM supplemented with 10% fetal bovine serum (Gibco, BRL). Cyclic AMP measurements were determined using the Adenylyl Cyclase Activation Flashplate® Assay with direct cAMP [^125I] Detection system.
(§13) HEK 293 cells (5×10^5 cells/ml) were plated in 15 cm dishes. […] Briefly, transfection mixture consisting of OptiMEM (Gibco, BRL) and FuGENE 6 reagent were mixed together and allow to incubate for 5 minutes at room temperature. Transfection reagent was added drop-wise into a separate tube containing 2 μg of endogenous human RUP43 receptor plasmid (Tranfected) or 2 μg of empty pCMV vector (Mock) and allowed to incubate for 15 minutes at room temperature. The DNA/transfection mixture was added drop-wise to each perspective plate and incubated over night in a humidified incubator maintained at 37° C., 95/5% […]. The next day, the media was replaced with normal growth media and the cells were incubated over night.
(§14) On Day 3, the cells were rinsed once with PBS and dislodged from the plate using a nonenzymatic cell-dissociation buffer (Gibco, BRL) and resuspended in assay stimulation Buffer® Perkin Elmer) at a density of 2×10^6 cell/ml for measurement of cAMP. […] At the end of the 2 hour incubation, the plate was aspirated and cAMP levels were determined using Wallac 1450 microbeta counter.

endogenous human RUP43 [4] = biological target: T1, endogenous human RUP43; experiment: Whole-cell cyclase Flashplate cAMP assay, RUP43-transfected HEK293 cells; format: cell-based; design: expressed in transfected cells; host or cells: HEK293 cells (ATCC), transient transfection with FuGENE 6
Experimental: as §12, §13, §14

[5] = various concentrations 3 hr vs 10 nM or 100 nM insulin 20 min

Compound	glucose uptake (mouse 3T3L1 adipocytes; 50 μM Compound 2 for various times, no insulin)	insulin-stimulated glucose uptake (mouse 3T3L1 adipocytes; compound 3 hr in serum-free medium, then various concentrations of insulin 20 min)	level of stimulated glucose uptake compared with insulin (primary human adipocytes; absence of insulin vs 100 nM insulin)	insulin-stimulated glucose uptake (primary human adipocytes; then 100 nM insulin 20 min)	glucose uptake (primary human adipocytes; without insulin)	insulin-stimulated glucose uptake (rat L6 myoblast cells; 50 μM for 3 hr, then 100 nM insulin 20 min)	time to stimulation of glucose uptake (rat L6 myoblast cells; 50 μM for various times) [min]	glucose uptake compared with insulin (rat L6 myoblast cells; [5])	glucose uptake (rat L6 myoblast cells; various concentrations for 3 hr, no insulin)	time course of glucose uptake ([1]; 50 μM for various time periods)	glucose uptake compared with insulin [1, 5]	glucose uptake ([1]; various concentrations for 3 hr, absence of insulin)	agonist of RUP43 (identification) (endogenous human RUP43 [2]; melanophore technology)	EC50 (endogenous human RUP43 [2]; melanophores transfected with endogenous human RUP43, 100 uM-51.2 pM, one hour) [nM]	Curve height (endogenous human RUP43 [2]; percent control response vs positive control wells (200) and negative control wells (100))	intracellular cAMP [3]	intracellular cAMP (endogenous human RUP43 [4]; HEK293 cells transfected with endogenous human RUP43, serially diluted compound, 1 hour)	agonist of RUP43 (identification) (endogenous human RUP43 [4]; whole-cell cAMP, HEK293 transfected with endogenous human RUP43)
O=C(Cc1ccccc1Cl)N1CCC(c2nc(C(=O)N3CCCc4ccccc43)cs2)CC1 [Compound 2, 2-(2-Chloro-phenyl)-1-{4-[4-(3,4-dihydro-2H-quinoline-1-carbonyl)-thiazol-2-yl]-piperidin-1-yl}-ethanone]	stimulates glucose uptake	enhances insulin-stimulated glucose uptake	comparable to the level of insulin-stimulated glucose uptake	enhanced insulin-stimulated glucose uptake	stimulates glucose uptake	enhances insulin-stimulated glucose uptake	≤ 20	greater glucose uptake in rat L6 myoblast than did insulin	stimulates glucose uptake	rapid stimulation of glucose uptake	more effectively than insulin	efficacious at stimulating glucose uptake; also recorded: stimulates glucose uptake	agonist of endogenous human RUP43	212	approximately 92 % of control			
CN(C(=O)c1csc(C2CCN(C(=O)Cc3ccccc3Cl)CC2)n1)c1c2c(nn1C)CCCC2 [Compound 1, 2-{1-[2-(2-Chloro-phenyl)-acetyl]-piperidin-4-yl}-thiazole-4-carboxylicacid methyl-(2-methyl-4,5,6,7-tetrahydro-2H-indazol-3-yl)-amide]																not in Mock transfected cells	in a dose dependent manner, led to an increase in intracellular cAMP	agonist of RUP43
